Test [1] concerns E. coli GFP. As to the kind of experiment: Antibiotic susceptibility of bulky bacteria on agar plates (E-test). In kind it is cell-based, Escherichia coli (ATCC 25922 GFP). As for the experimental part:
(§1) Escherichia coli (E. coli) (ATCC 25922 GFP™) was chosen as a model bacterium. Ampicillin and gentamicin were chosen as model antibiotic drugs. The operational parameters were optimized to isolate 0 or 1 bacterium in each chamber. For the determination of minimum inhibitory concentration (MIC), fluorescence intensity of the sample was measured via inverted fluorescence microscope at 2 hours intervals, during 6 hours of incubation in a temperature-controlled chamber at 37° C. The time-dependent morpho-structural variabilities of bacterium were characterized by a software. […] 0.25 μg/ml GM inhibits bulky E. coli GFP growth on agar plates and microfluidic chip. On the contrary, 0.1 μg/ml GM inhibits growth of ˜90% E. coli GFP in the microfluidic chip, and resistant subpopulation continue growing after 4 h. The present invention shed light on breakthrough development in bacterial resistance research and rapid drug testing applications.
The multi-parametric motion-analysis incorporating line length, elongation ratio, circularity, line speed, path speed and intensity are found useful for the identification of resistance and susceptibility of E. coli in 4 hours. […] However, resistant subpopulation continues growing after 4 h.

Test [2] relates to E. coli GFP. The test is described as follows: Antibiotic susceptibility testing in the microfluidic chip (fluorescence, MIC determination). In kind it is cell-based, Escherichia coli (ATCC 25922 GFP). As for the experimental part:
as §1, with “applications. […]” for “applications.”
Step 3, The morpho-structural changes and Dynamic phenotypic analysis of bacterium were evaluated by microscopy methods. […] In this and the following examples, E. coli is monitored during the first 6 hours and after 21 hours of incubation at 37° C. inside a temperature-controlled chamber placed on the microscope-stage. […]

For gentamicin [GM], the “concentration that inhibits bulky E. coli GFP growth (MIC)” value in the test with E. coli GFP [1] amounted to 0.25 µg/mL; with E. coli GFP [2] (bulky bacteria, 37° C., 6 hours incubation) it was 0.25 µg/mL. Further, the “share of E. coli GFP whose growth is inhibited” value in the test on E. coli GFP [2] (0.1 μg/ml GM, resistant subpopulation continues growing after 4 h) was around 90%.
